Test results as given in patent US6867179B1, “Methods of inducing hair growth and coloration” (Trustees of Boston University, priority 1994, dated 2005).

Assays:
Type in all cases: cell-based, human
Keratinocytes = test: Keratinocyte DNA fragmentation and cell yield after UV irradiation with NGF
Procedure: Keratinocytes were plated in 60 mm diameter tissue culture dishes in MCDB153 supplemented with epidermal growth factor (0.1 ng/ml human recombinant), insulin (5 microg/ml), hydrocortisone (0.5 microg/ml, calcium (0.15 mM), bovine pituitary extract (BPE), (2 ml per 500 ml medium), gentamicin (50 microg/ml), and amphotericin-B (50 ng/ml) (karetinocyte basal medium). Preconfluent cells were irradiated in phosphate buffered saline PBS) using a 1 KW xenon arc solar simulator (XMN 1000-21, Optical Radiation Corp., Azuza, Calif.) with 15 or 25 mJ/cm^2 UV through the petri dish plastic cover as described in Example 7. After UV irradiation, cells were maintained in their basal medium 3 days and processed as indicated. Sham irradiated control cultures were handled identically but placed under a dark cloth adjacent to the UV beam.
Cells were washed with cold PBS and disrupted in lysis buffer pH8 (10 mM tris, 150 mM NaCl, 0.1 mM EDTA, 1% SDS, 200 µg/ml proteinase K). After 15 hour incubation at […], samples were extracted twice with phenol plus chloroform (1:1, V/V) and precipitated overnight with ethanol (2.5×volume) and 3 M sodium acetate (1/10×volume). The DNA was then digested with DNAse free ribonuclease (10 microg/ml) for one hour at 37C, separated on 1% agarose gel and stained with ethidium bromide.
Keratinocytes were UV-irradiated as in Example 9. After irradiation cells were placed in fresh keratinocyte medium containing 50 ng/ml NGF or diluent alone. DNA fragmentation was determined as in Example 9. […] The standard (STD) is 100 bp DNA ladder (Gibco/BRL). […] UV irradiated keratinocytes were growth arrested as expected.

melanocytes = test: NGF protection of melanocytes from beta-amyloid-induced cell death
Procedure: Melanocytes were maintained as above in hormone supplemented medium lacking hydrocortisone. Cells were supplemented with 25 microM of beta-amyloid 1-40 in the presence of 50 ng/ml NGS or diluent.
Photographs of representative fields were obtained and the percent of the live cells (spread) was determined 48 hours after addition of beta-amyloid and NFG or beta-amyloid and diluent. In the presence of beta-amyloid and diluent 77±8.5% appeared spread as compared to 96±1.4% in cultures supplemenbetated in beta-amyloid and NGF.

BCL-2 = BCL-2 antisense oligonucleotides in UV-irradiated MM4 cells with or without NGF; conditions: UV 10 mJ/cm^2, NGF 50 ng/ml, 48 hours
Source text: Purified phosphorothioate oligonucleotides were purchased from Quality Controlled Biochemicals, Inc. (Hopkinton, Mass.). 19 mer oligonucleotides were designed based on the published human BCL-2 sequence (Tsujimoto, Y. and Croce, C. M., Proc. Natl. Acad. Sci. USA, 83:5214-5218 (1986)). The sequence chosen was directed against the […] of the coding region starting 4 bases before the methionine initiation site. Nonsense oligonucleotides were used as control. Sequences used (all written 5′ to 3′): Antisense CCCAGCGTGCGCCATCCTT (SEQ ID NO: 7); Nonsense CTCCCACTCGTCATTCGAC (SEQ ID NO: 8).
MM4 cells were maintained in 60 mm diameter tissue culture dishes in 55.3% DME, 27.6% L15, 15% FBS, 1% nonessential amino acids (GIBCO BRL), 2 mM glutamine and 10 µg/ml insulin. Near confluent cells were UV irradiated with 10 mJ/cm^2. Immediately after irradiation cells were incubated with 10 uM antisense or nonsense BCL-2 oligonucleotides in suspension at […] for 30 minutes. Then cells were plated in tissue culture dishes in the presence or absence of NGF (50 ng/ml). Cells were supplemented with fresh oligonucleotides every 12 hours. Cell yield and BCL-2 level were determined 48 hours after irradiation. Cell yield was determined by counting cells in at least three representative field per each condition.

p75 = p75 signal transduction in melanocytes (JNK activation, intracellular ceramide)
Procedure: To investigate p75 signal transduction, it was first determined by RT-PCR that trkA and trkC are not expressed in MC maintained in choleragen/TPA-free medium. MC were incubated with 10 ng/ml nerve growth factor (NGF) or neurotrophin-3 (NT-3) for 30 minutes and c-Jun amino terminal kinase (JNK) activation was determined. […] Furthermore, within 3 hours p75 activation by NGF, but not by NT-3, lead to a 2-fold increase of intracellular ceramide. As before, ceramide increase was abrogated by pre-incubation with the cyclic peptide. Because in cell lines, UV irradiation directly activates cell surface receptors such as Fas and the TNFα receptor, sham- or UV-irradiated MC were used to determine p75 activation.

[1] = NGF supplementation, preliminary data

## NGF: nerve growth factor, neurotrophin ligand of p75 NGF-R and trk
Keratinocytes; 50 ng/ml NGF
  DNA fragmentation of UV irradiated keratinocytes: not fragmented
Keratinocytes; NGF supplemented medium, within 5 days
  Increase in keratinocyte cell yields: 40%
Keratinocytes; UV irradiated, 50 ng/ml NGF, within 24 hours, diluent 50%
  Decrease in keratinocyte cell yield: 30%
melanocytes; 25 microM beta-amyloid 1-40 and 50 ng/ml NGF, 48 hours
  Percent of live cells (spread): 96±1.4%
melanocytes; NGF addition, within 3-5 days
  Cell yields of beta-amyloid-supplemented melanocytes: enhanced cell yields
melanocytes; [1]
  Bcl-2 levels in beta-amyloid treated cells: increases Bcl-2 levels
  Beta-amyloid-induced Bax upregulation: decreases the beta-amyloid-induced Bax upregulation
melanocytes; in the presence of NGF
  Appearance of beta-amyloid exposed melanocytes: appear healthy and spread on the dish surface
BCL-2
  Cell yields, NGF plus nonsense oligonucleotides versus diluent plus nonsense: significantly higher
p75; 10 ng/ml, 30 minutes, MC without trkA and trkC
  JNK activation (phosphorylation of GST-c-Jun(1-79)): substantially induced phosphorylation of GST-c-Jun(1-79)
p75; within 3 hours
  Increase of intracellular ceramide: 2 fold
